From patent US7112586B2, “Substituted diamine derivatives useful as motilin antagonists” (Ortho-McNeil Pharmaceutical, Inc., priority 2000, dated 2006)

Target: T1, Motilin Receptor (Oryctolagus cuniculus, UniProt G1T803)
T1 construct: The muscle tissue was homogenized in 10 volumes of 50 mM Tris-Cl; from tissue; host or cells: rabbit colon smooth muscle, crude membrane homogenate
Assay: Motilin receptor binding, rabbit colon membranes, 125I porcine motilin
Parameters: Rabbit Colon % Inh / inhibition / % Inh (Rabbit colon): dose or concentration left out as unconfirmed
Details: rabbit colon membranes; for inhibition: read-out: Rabbit Colon % Inh; for IC50: read-out: Rabbit Colon IC50
Method: Rabbit colon was removed, dissected free from the mucosa and serosa, and diced into small pieces. The muscle tissue was homogenized in 10 volumes of 50 mM Tris-Cl, 10 mM MgCl2, 0.1 mg/ml bacitracin, and 0.25 mM Peflabloc, at pH 7.5 in a Polytron (29000 rpm, 4×15 seconds). The homogenate was centrifuged at 1000×g for 15 minutes and the supernatant discarded. The pellet was washed twice before being suspended in homogenizing buffer. The crude homogenate was resuspended through a 23 gauge needle before storing at −80° C. […] After 60 minutes at 30° C., the samples were cooled in ice, centrifuged in the cold at 13000×g for 1 minute. The pellet was washed twice with 1 ml of cold saline, the supernatant was aspirated, and the pellet at the bottom of the tube counted in a gamma counter. Non-specific binding was determined by the inclusion of 1 mM of unlabeled motilin. IC50 values were determined from Kaleidograph curves.

T1 sequence (G1T803 1-400): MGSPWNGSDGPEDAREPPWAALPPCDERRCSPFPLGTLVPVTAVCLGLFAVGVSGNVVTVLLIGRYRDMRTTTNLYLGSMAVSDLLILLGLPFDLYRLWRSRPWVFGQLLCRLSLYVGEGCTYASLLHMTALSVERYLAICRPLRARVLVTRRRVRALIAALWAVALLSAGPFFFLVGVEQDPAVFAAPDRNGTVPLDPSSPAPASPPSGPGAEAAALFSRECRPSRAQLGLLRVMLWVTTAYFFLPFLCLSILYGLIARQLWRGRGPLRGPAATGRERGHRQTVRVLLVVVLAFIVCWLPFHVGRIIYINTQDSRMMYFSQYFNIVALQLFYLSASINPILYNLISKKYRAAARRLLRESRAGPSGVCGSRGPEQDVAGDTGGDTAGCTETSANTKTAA

`O=C(c1ccc(F)cc1)N(CC1CCCC(N(Cc2ccccc2)C(=O)CCc2ccccc2)C1)c1cccc(OCCN2CCOCC2)c1` (centres unmarked) [compound 115] was tested, and the “Rabbit Colon % Inh” value was 26%.
With `CC(C)(C)C(=O)N(Cc1ccccc1)C1CCCC(CN(C(=O)c2ccc(F)cc2)c2cccc(OCCN3CCOCC3)c2)C1` (centres unmarked) [compound 116] the inhibition was 61% and the IC50 was 772 nM.
In the case of `COc1cccc(C(=O)N(Cc2ccccc2)C2CCCC(CN(C(=O)c3ccc(F)cc3)c3cccc(OCCN4CCOCC4)c3)C2)c1` (centres unmarked) [compound 117], the “Rabbit Colon % Inh” value is reported as 17%.
With `O=C(c1ccc(F)cc1)N(CC1CCCC(N(Cc2ccccc2)C(=O)c2ccc(-c3ccccc3)cc2)C1)c1cccc(OCCN2CCOCC2)c1` (centres unmarked) [compound 118] the “Rabbit Colon % Inh” value was 58%.
For `O=C(c1ccc(F)cc1)N(CC1CCCC(N(Cc2ccccc2)C(=O)c2cc(C(F)(F)F)cc(C(F)(F)F)c2)C1)c1cccc(OCCN2CCOCC2)c1` (centres unmarked) [compound 119], the “Rabbit Colon % Inh” value was 22%.
Work on `O=C(c1ccc(F)cc1)N(CC1CCCC(N(Cc2ccccc2)C(=O)C(F)(F)F)C1)c1cccc(OCCN2CCOCC2)c1` (centres unmarked) [compound 120] yielded an inhibition of 69% and an IC50 of 954 nM.
Work on `O=C(c1ccc(F)cc1)N(CC1CCCC(N(Cc2ccccc2)C(=O)C(Cl)(Cl)Cl)C1)c1cccc(OCCN2CCOCC2)c1` (centres unmarked) [compound 122] yielded an inhibition of 64% and an IC50 of 840 nM.
In the case of `O=C(c1ccc(F)cc1)N(CC1CCCC(N(Cc2ccccc2)S(=O)(=O)c2ccc3ccccc3c2)C1)c1cccc(OCCN2CCOCC2)c1` (centres unmarked) [compound 123], the “Rabbit Colon % Inh” value is reported as 8%.
`O=C(c1ccc(F)cc1)N(CC1CCCC(N(Cc2ccccc2)C(=O)c2ccco2)C1)c1cccc(OCCN2CCOCC2)c1` (centres unmarked) [compound 124] showed an inhibition of 70% and an IC50 of 904 nM.
With `O=C(c1ccc(F)cc1)N(CC1CCCC(N(Cc2ccccc2)C(=O)Nc2ccccc2)C1)c1cccc(OCCN2CCOCC2)c1` (centres unmarked) [compound 125] the “Rabbit Colon % Inh” value was 25%.
Molecule `O=C(CCC(=O)N(Cc1ccc(F)cc1)c1cccc(OCCN2CCOCC2)c1)N(CCc1ccccc1)Cc1ccccc1` [compound 128] has an inhibition of 75% and an IC50 of 230 nM.
Work on `O=C(CCCC(=O)N(Cc1ccc(F)cc1)c1cccc(OCCN2CCOCC2)c1)N(CCc1ccccc1)Cc1ccccc1` [compound 129] yielded an inhibition of 90% and an IC50 of 58 nM.
`O=C(CCc1ccccc1)N[C@@H](Cc1ccccc1)C(=O)N(Cc1ccc(F)cc1)c1cccc(OCCN2CCOCC2)c1` [compound 130] was tested, and the “Rabbit Colon % Inh” value was 8%.
With `O=C([C@H](Cc1ccccc1)NC(=O)C(Cl)(Cl)Cl)N(Cc1ccc(F)cc1)c1cccc(OCCN2CCOCC2)c1` [compound 131] the “Rabbit Colon % Inh” value was 19%.
`O=C(N[C@@H](Cc1ccccc1)C(=O)N(Cc1ccc(F)cc1)c1cccc(OCCN2CCOCC2)c1)c1ccc(-c2ccccc2)cc1` [compound 132] was tested, and the “Rabbit Colon % Inh” value was 10%.
In the case of `O=C(N[C@@H](Cc1ccccc1)C(=O)N(Cc1ccc(F)cc1)c1cccc(OCCN2CCOCC2)c1)C(c1ccccc1)c1ccccc1` [compound 133], the “Rabbit Colon % Inh” value is reported as 6%.
With `COc1cccc(CC(=O)N[C@@H](Cc2ccccc2)C(=O)N(Cc2ccc(F)cc2)c2cccc(OCCN3CCOCC3)c2)c1` [compound 134] the “Rabbit Colon % Inh” value was 0%.
For `O=C([C@H](Cc1ccccc1)NS(=O)(=O)c1ccc(-c2ccccc2)cc1)N(Cc1ccc(F)cc1)c1cccc(OCCN2CCOCC2)c1` [compound 135], the “Rabbit Colon % Inh” value was 8%.
`O=C(c1cccc(CN(C(=O)c2ccc(F)cc2)c2cccc(OCCN3CCOCC3)c2)c1)N(CCc1ccccc1)Cc1ccccc1` [compound 136] was tested, and the “Rabbit Colon % Inh” value was 43%.
For `O=C(NC(c1ccccc1)c1ccccc1)c1cccc(CN(C(=O)c2ccc(F)cc2)c2cccc(OCCN3CCOCC3)c2)c1` [compound 137], the “Rabbit Colon % Inh” value was 30%.
Work on `O=C(NCCc1ccccc1)c1cccc(CN(C(=O)c2ccc(F)cc2)c2cccc(OCCN3CCOCC3)c2)c1` [compound 138] yielded an inhibition of 36%.
In the case of `CC(C)(C)CN(Cc1ccccc1)C(=O)c1cccc(CN(C(=O)c2ccc(F)cc2)c2cccc(OCCN3CCOCC3)c2)c1` [compound 140], the “Rabbit Colon % Inh” value is reported as 45%.
`CC(C)(C)CN(Cc1cccc(Cl)c1)C(=O)c1cccc(CN(C(=O)c2ccc(F)cc2)c2cccc(OCCN3CCOCC3)c2)c1` [compound 141] was tested, and the “Rabbit Colon % Inh” value was 21%.
For `O=C(c1ccc(F)cc1)N(Cc1cccc(C(=O)N2CCc3ccccc3C2c2ccccc2)c1)c1cccc(OCCN2CCOCC2)c1` (centres unmarked) [compound 142], the “Rabbit Colon % Inh” value was 17%.
In the case of `O=C(CCCN(C(=O)c1ccc(F)cc1)c1cccc(OCCN2CCOCC2)c1)NC(c1ccccc1)c1ccccc1` [compound 143], the “Rabbit Colon % Inh” value is reported as 0%.
With `O=C(CCCN(C(=O)c1ccc(F)cc1)c1cccc(OCCN2CCOCC2)c1)N(CCCc1ccccc1)Cc1ccccc1` [compound 144] the “Rabbit Colon % Inh” value was 54%.
For `CC(C)(C)CN(Cc1ccccc1)C(=O)CCCN(C(=O)c1ccc(F)cc1)c1cccc(OCCN2CCOCC2)c1` [compound 145], the “Rabbit Colon % Inh” value was 35%.
For `COc1ccc(CCN(Cc2ccccc2)C(=O)CCCN(C(=O)c2ccc(F)cc2)c2cccc(OCCN3CCOCC3)c2)cc1` [compound 146], the “Rabbit Colon % Inh” value was 32%.
For `COc1ccc(CCN(Cc2cccc(Cl)c2)C(=O)CCCN(C(=O)c2ccc(F)cc2)c2cccc(OCCN3CCOCC3)c2)cc1` [compound 147], the inhibition was 61% and the IC50 was 490 nM.
For `O=C(c1ccc(F)cc1)N(CCCC(=O)N1CCc2ccccc2C1c1ccccc1)c1cccc(OCCN2CCOCC2)c1` (centres unmarked) [compound 148], the “Rabbit Colon % Inh” value was 19%.
`O=C(CCCN(C(=O)c1ccc(F)cc1)c1cccc(OCCN2CCOCC2)c1)N1CCN(C(c2ccccc2)c2ccc(Cl)cc2)CC1` (centres unmarked) [compound 149] was tested, and the “Rabbit Colon % Inh” value was 27%.
With `O=C([C@H](Cc1ccccc1)N(Cc1ccccc1)C(=O)C(Cl)(Cl)Cl)N(Cc1ccc(F)cc1)c1cccc(OCCN2CCOCC2)c1` [compound 151] the “Rabbit Colon % Inh” value was 1%.
`O=C([C@H](Cc1ccccc1)N(Cc1ccccc1)C(=O)CCc1ccccc1)N(Cc1ccc(F)cc1)c1cccc(OCCN2CCOCC2)c1` [compound 152] was tested, and the “Rabbit Colon % Inh” value was 0%.
With `O=C(C1CC=CCC1C(=O)N(Cc1ccc(F)cc1)c1cccc(OCCN2CCOCC2)c1)N(CCc1ccccc1)Cc1ccccc1` (centres unmarked) [compound 155] the “Rabbit Colon % Inh” value was 34%.
With `O=C(Nc1cccc(OCCN2CCOCC2)c1)C1=C(C(=O)N(CCc2ccccc2)Cc2ccccc2)CCC1` [compound 156] the “Rabbit Colon % Inh” value was 18%.
`O=C(CCCC(=O)N(Cc1ccc(F)cc1)c1cccc(OCCN2CCOCC2)c1)N(CCCc1ccccc1)Cc1ccccc1` [compound 159] was tested, and the inhibition was 83% and the IC50 was 275 nM.
Molecule `O=C(CCC(=O)N(Cc1ccccc1F)c1cccc(OCCN2CCOCC2)c1)N(CCc1ccccc1)Cc1ccccc1` [compound 165] has an inhibition of 63% and an IC50 of 550 nM.
In the case of `COc1ccc(CN(C(=O)CCC(=O)N(CCc2ccccc2)Cc2ccccc2)c2cccc(OCCN3CCOCC3)c2)cc1` [compound 166], the “Rabbit Colon % Inh” value is reported as 23%.
`O=C(CCC(=O)N(Cc1ccc(C(F)(F)F)cc1)c1cccc(OCCN2CCOCC2)c1)N(CCc1ccccc1)Cc1ccccc1` [compound 167] was tested, and the “Rabbit Colon % Inh” value was 42%.
`O=C(CCC(=O)N(Cc1ccc(Cl)cc1)c1cccc(OCCN2CCOCC2)c1)N(CCc1ccccc1)Cc1ccccc1` [compound 168] was tested, and the “Rabbit Colon % Inh” value was 36%.
In the case of `O=C(CCCC(=O)N(Cc1ccc(C(F)(F)F)cc1)c1cccc(OCCN2CCOCC2)c1)N(CCc1ccccc1)Cc1ccccc1` [compound 172], the “Rabbit Colon % Inh” value is reported as 40%.
In the case of `O=C(c1ccc(F)cc1)N(CC1CCC(N(Cc2ccccn2)C(=O)C(Cl)(Cl)Cl)CC1)c1cccc(OCCN2CCOCC2)c1` (centres unmarked) [compound 174], the “Rabbit Colon % Inh” value is reported as 0%.
`O=C(CCCC(=O)N(Cc1ccc(F)cc1)c1cccc(O)c1)N(CCc1ccccc1)Cc1ccccc1` [compound 175] was tested, and the “Rabbit Colon % Inh” value was 0%.
For `O=C1CCCN1CCOc1cccc(N(Cc2ccc(F)cc2)C(=O)CCCC(=O)N(CCc2ccccc2)Cc2ccccc2)c1` [compound 176], the “Rabbit Colon % Inh” value was 32%.
For `O=C(Nc1ccccc1)N(CC1CCC(N(Cc2ccccc2)C(=O)Cc2ccccc2)CC1)c1cccc(OCCN2CCOCC2)c1` (centres unmarked) [compound 183], the “Rabbit Colon % Inh” value was 2%.
With `COc1cccc(C(=O)N(Cc2cccc(Cl)c2)C2CCC(CN(C(=O)Nc3ccccc3)c3cccc(OCCN4CCOCC4)c3)CC2)c1` (centres unmarked) [compound 184] the “Rabbit Colon % Inh” value was 6%.
In the case of `O=C(Nc1ccccc1)N(CC1CCC(N(Cc2cccc(Cl)c2)C(=O)c2ccco2)CC1)c1cccc(OCCN2CCOCC2)c1` (centres unmarked) [compound 185], the “Rabbit Colon % Inh” value is reported as 0%.
`COc1cccc(C(=O)N(Cc2cccc([N+](=O)[O-])c2)C2CCC(CN(C(=O)Nc3ccccc3)c3cccc(OCCN4CCOCC4)c3)CC2)c1` (centres unmarked) [compound 186] was tested, and the “Rabbit Colon % Inh” value was 0%.
With `CN(C)CCCOc1cccc(N(Cc2ccc(F)cc2)C(=O)CCCC(=O)N(CCc2ccccc2)Cc2ccccc2)c1` [compound 187] the inhibition was 100% and the IC50 was 229 nM.
`CC(CC(=O)N(CCc1ccccc1)Cc1ccccc1)CC(=O)N(Cc1ccc(F)cc1)c1cccc(OCCN2CCOCC2)c1` (centres unmarked) [compound 189] gave an inhibition of 70% and an IC50 of 300 nM.
For `O=C(CCCC(=O)N(Cc1ccc(F)cc1)c1ccc(OCCN2CCCC2)cc1)N(CCc1ccccc1)Cc1ccccc1` [compound 191], the “Rabbit Colon % Inh” value was 27%.
`O=C(CCCC(=O)N(Cc1ccc(F)cc1)c1ccc(OCCN2CCOCC2)cc1)N(CCc1ccccc1)Cc1ccccc1` [compound 192] was tested, and the “Rabbit Colon % Inh” value was 15%.
`O=C(CCCC(=O)N(Cc1ccc(F)cc1)c1ccc(OCCCN2CCCCC2)cc1)N(CCc1ccccc1)Cc1ccccc1` [compound 193] was tested, and the “Rabbit Colon % Inh” value was 7%.
For `CN(C)CCOc1ccc(N(Cc2ccc(F)cc2)C(=O)CCCC(=O)N(CCc2ccccc2)Cc2ccccc2)cc1` [compound 194], the “Rabbit Colon % Inh” value was 23%.
